Key:
clinical = assay: clinical; design: species or system humans; details: human, in vivo
CYP3A4 = target: T1, CYP3A4 (Homo sapiens, UniProt P08684); assay: Metabolism of laquinimod in the liver; type: in vivo; details: humans
T1 construct: from tissue; host or cells: human liver (in vivo)

patients with HD = assay: Phase II randomized, double-blind, placebo-controlled clinical trial of laquinimod in Huntington's disease; type: in vivo, human
Method: A phase II, multi-centered, multinational, randomized, parallel-group, double-blinded, placebo-controlled study is conducted to evaluate the safety and efficacy of laquinimod (0.5, 1.0 and 1.5 mg/day) versus placebo in patients with HD.
This study includes 4 treatment arms, with approximately 100 patients per treatment arm and approximately 400 patients in total. The study is conducted in approximately 30 centers in Canada, USA and Europe.
The study population is comprised of patients with adult onset HD, with a cytosine-adenosine-guanine (CAG) repeat length between 40 and 49, inclusive. The basic eligibility criteria selects a population with symptoms of HD, as assessed by a Unified HD Rating Scale—Total Motor Score (UHDRS-TMS)>5, but with a largely retained functional capacity, as assessed with a Unified HD Rating Scale—Total Functional Capacity (UHDRS-TFC) score≧8.
The dose levels of laquinimod are 0.5 mg/day, 1.0 mg/day and 1.5 mg/day. Every patient takes 3 capsules once daily at the same time of the day for the whole study period.
The Laqunimod Treatment Arms are as follows: • 1.5 mg LAQ/day: patients randomized to laquinimod 1.5 mg qd (i.e., once daily) treatment arm receive 3 capsules of 0.5 mg laquinimod daily. • 1.0 mg LAQ/day: patients randomized to laquinimod 1.0 mg qd treatment arm receive 2 capsules of 0.5 mg laquinimod and 1 capsule of matching placebo daily. • 0.5 mg LAQ/day: patients randomized to laquinimod 0.5 mg qd treatment arm receive 1 capsule of 0.5 mg laquinimod and 2 capsules of matching placebo daily.
The 0.5 mg laquinimod capsules were prepared using 0.534 mg of laquinimod sodium per capsule (which is equivalent to 0.5 mg of laquinimod acid). The capsules were prepared using a blend proportional to the 0.6 mg capsules described in PCT International Application No. PCT/US2007/013721 (WO 2007/146248). The capsules were prepared according to the method described in PCT international Application No. PCT/US2007/013721 (WO 2007/146248), which is hereby incorporated by reference into this application.
This is a multinational, multicenter, randomized, double-blind, parallel-group, placebo-controlled study to evaluate the safety and clinical effect of daily oral administration of laquinimod (0.5 mg, 1.0 mg, or 1.5 mg) in patients with HD.
Patients are treated with laquinimod for 12 months, and safety and efficacy are assessed after 1, 3, 6, 9 and 12 months of treatment. Eligible subjects are randomized in a 1:1:1:1 ratio into one of the following treatment arms: • 1. Laquinimod capsule 0.5 mg (Total of 0.5 mg) • 2. Laquinimod capsules 0.5 mg×2 (Total of 1.0 mg) • 3. Laquinimod capsules 0.5 mg×3 (Total of 1.5 mg) • 4. Matching placebo
The following assessments are performed at the specified time points: • 1. Eligibility criteria is reviewed and confirmed at screening and baseline. • 2. Vital signs are measured at each study visit. • 3. A physical examination is performed at each study visit. • 4. The following safety clinical laboratory tests are performed: • a) Complete blood count (CBC) with differential at each study visit. • b) Serum chemistry (including electrolytes, liver enzymes, urea, creatinine, glucose, total protein, albumin, direct and total bilirubin, Creatinephosphokinase (CPK), serum conventional C-reactive protein (CRP), fibrinogen and pancreatic amylase)—at all scheduled visits. […]

[1] = system: patients with relapsing remitting MS; details: after 1 year of treatment; cited from earlier work
[2] = 0.5, 1.0 and 1.5 mg/day oral vs Placebo Arm, 12 months

T1 sequence (P08684 whole entry): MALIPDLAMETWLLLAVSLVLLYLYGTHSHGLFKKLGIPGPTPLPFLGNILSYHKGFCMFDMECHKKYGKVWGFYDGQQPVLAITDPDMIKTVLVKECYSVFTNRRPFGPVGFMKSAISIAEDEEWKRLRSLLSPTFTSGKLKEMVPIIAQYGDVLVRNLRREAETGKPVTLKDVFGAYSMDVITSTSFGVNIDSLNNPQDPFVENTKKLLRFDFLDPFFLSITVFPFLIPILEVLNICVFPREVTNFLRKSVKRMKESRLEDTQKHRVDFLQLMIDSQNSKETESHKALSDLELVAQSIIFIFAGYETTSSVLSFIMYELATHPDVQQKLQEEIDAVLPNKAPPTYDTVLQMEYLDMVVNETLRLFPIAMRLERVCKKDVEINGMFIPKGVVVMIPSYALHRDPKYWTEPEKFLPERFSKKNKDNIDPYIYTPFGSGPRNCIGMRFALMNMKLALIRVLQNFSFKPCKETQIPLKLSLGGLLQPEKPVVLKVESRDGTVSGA

## CCN(C(=O)c1c(O)c2c(Cl)cccc2n(C)c1=O)c1ccccc1 [laquinimod]
clinical
  Vd: ~10 L
  fraction unbound: < 0.02
  half-life: ~80 h
clinical; po
  bioavailability: ~90%
  oral clearance: ~0.09 L/h
CYP3A4
  metabolism by CYP3A4 in the liver: extensively metabolized
Patients with HD; [2]
  Progression (rate of change) of CIBIC-Plus global score: slower
  Progression (rate of change) of HADS: slower
  Progression (rate of change) of PBA (short): slower
  Progression (rate of change) of Physical Performance Test (PPT) score: slower
  Progression (rate of change) of Q-motor assessments score: slower
  Progression (rate of change) of UHDRS-FA score: slower
  Progression (rate of change) of UHDRS-TMS: slower
  Progression (rate of change) of cognitive assessment battery (CAB): slower
  Progression (rate of change) of deterioration of functional capacity, UHDRS-TFC score: slower
  Progression (rate of change) of work productivity and quality of life (HD-QoL): slower
Patients with HD; 0.5, 1.0 and 1.5 mg/day oral vs Placebo Arm, MRI, 12 months
  Progression (rate of change) of brain atrophy (whole brain, caudate, white matter, ventricular volume): slower
Patients with HD; 0.5, 1.0 and 1.5 mg/day oral, UHDRS-TMS >5 and/or UHDRS-TFC ≧8 at baseline
  treatment of symptomatic early HD patients: effective
[1]
  effect on brain atrophy and disability progression: benefit
